Source: article PMC9563500, “Effect of Coffee on the Bioavailability of Sterols” (Foods, 2022)
Where two headings read alike, the source gives them in different places.

Tests used:
[1] = set-up: method as in PMID 27079626, PMID 22569559; conditions: cited from earlier work
[2] = 50 mM bile salt concentration; cited from earlier work
Caco-2 monolayers [3] = test: Lucifer Yellow paracellular permeability through Caco-2 monolayers (cell monolayer integrity); format: in vitro ADME, human
Method: (§1) For transport experiments, the Caco-2 monolayers were prepared by seeding the cells at a density of 2.6 × 10^5 cells/cm^2 on 12-well polycarbonate Transwell^TM plates, following protocols previously defined for this assay. The cells were cultured until monolayer differentiation, for a total of 24 days, with culture medium being renewed every two days. On the day of the experiment, the culture medium was removed and replaced by HBSS medium pre-warmed at 37 °C (0.5 mL in the apical and 1.5 mL in the basolateral sides). The cell monolayers were placed in an incubator at 37 °C with a plate orbital shaker (IKA-Schüttler MTS4) at 50 rpm for 8 min. After two washing steps, the transepithelial electrical resistance (TEER) values were measured using a Millicell® ERS-2 voltmeter (Merck). The net TEER values (Ω cm^2) were obtained by subtracting the cell-free filter resistance and multiplying by filter area. All cell monolayers achieved TEER values exceeding 700 Ω cm^2 and were considered adequate for transport experiments.
(§2) In assessing the influence of coffees samples on DHE absorption by intestinal epithelia, the transport was studied in the absorptive way; that is, in the apical (mimicking the intestinal lumen) to the basolateral (mimicking the bloodstream) direction. The solutions of DHE to be applied in the apical side were prepared as follows: first, the lyophilized coffee extracts (16-fold diluted) were dissolved with GCA (10 mM) solution in HBSS. Then, the mixtures were allowed to equilibrated overnight in a 37 °C in a water bath with shaking at 100 rpm. On the day of the experiment, DHE was added to the coffee/GCA mixture or to GCA only (Control) as an aliquot from a DMSO stock of 10 mM DHE. Addition was performed under vigorous vortex mixing to facilitate DHE interaction with the GCA micelles and prevent its precipitation. The final DHE concentration ranged from 10 to 100 μM, corresponding to ≤1% (v/v) DMSO. To allow evaluation of the cell monolayer integrity in each permeability assay, the paracellular marker Lucifer Yellow (LY) was also added to the final mixtures at a concentration of 20 μM. The solutions were maintained at 37 °C until application in the permeability assay, and where optically clear.
To start the absorptive transport experiments, the HBSS on the apical side was removed and replaced with 450 μL of the test solution (emulsified DHE + LY, emulsified DHE + coffee + LY or LY solutions). After addition of the test solution, 50 μL was collected (corresponding to a time delay of about 2 min) and the inserts were moved to a 12-well plate containing 1.2 mL of the basolateral transport medium. The plate was kept at 37 °C under stirring at 50 rpm for a total period of 6 h, with the assays being performed with either a single point sampling or three-points with 2 h sampling intervals. During the three-point sampling assay, 25 μL of the apical compartment was withdrawn at 2 and 4 h and replaced with fresh HBSS. At each time point indicated, the insert was also moved to another 12-well plate containing fresh basolateral medium (transfer sampling). At the end of the experiment (t6h), the inserts were transferred into empty wells and 50 μL were collected from the apical compartment and the remaining solution was decanted and stored. The 12-well plates with the samples of the basolateral compartments were frozen (−18 °C) and lyophilized. The same procedure was also applied to the aliquots of the apical side. All samples were then stored in a humidity-controlled environment until analysis.
The paracellular permeability of each cell monolayer was assessed by the quantification of LY transport from the apical and basolateral sides. For the samples from the apical side, aliquots of 50 μL were withdrawn at the beginning and end of the permeation experiment. The samples were diluted 30-fold and 100 µL were transferred to a 96-wells plate with clear bottom and black sides (Thermo Scientific Nunc). […]

[4] = MTT cell viability assay (bile salts and coffee extracts); format: cell-based; conditions: human, Caco-2 cells, pH 7.4; for viability at 2 h: Figure S4 (incubation 2 h)
Method: The influence of bile salts and coffee extracts on the Caco-2 cells viability was assessed with the MTT assay for determination of mitochondrial activity in active cells. Briefly, the cells were seeded in 96-well plates at a density of 1 × 10^4 cells/well in 200 μL of medium. Cells were then maintained in culture until confluence, for 96 h with medium renewal after 3 days. Solutions of individual bile salts GCDCA, GDCA, GCA and the combination of all three were prepared in the transport buffer HBSS (containing 25 mM HEPES, 0.35 g/L sodium bicarbonate, pH 7.4) at several concentrations above their critical micellar concentration (CMC). Two-fold serial dilutions of individual coffee extracts or mixtures with the bile salts were prepared by diluting the lyophilized extracts in HBSS or HBSS plus bile salts. The following controls were also included: 20% (v/v) of dimethyl sulfoxide (DMSO) in HBSS (positive control) and only HBSS (negative control). The cells were incubated for 6 h with test samples or controls (200 μL). Then, the cells were washed with PBS and incubated with 150 μL of MTT diluted in medium (0.5 mg/mL) for 4 h at 37 °C. Finally, the medium was discarded, and the formazan crystals produced by active cells were solubilized with dimethyl sulfoxide (150 μL) for 15 min under continuous stirring. The absorbances were measured at 570 nm in a Synergy HT Microplate Reader (BioTek Instruments, Inc., Winooski, VT, USA). All conditions were performed in triplicate. Results are expressed as a percentage of cell viability relative to the negative control.

[5] = Solubility of DHE in GCA micelles (DHE fluorescence intensity); format: physicochemical; conditions: GCA 10 mM; Figure S6
Method: S5 – Solubility of DHE in GCA micelles
The solubility of DHE in the GCA micelles at the concentration of GCA used in the
permeability assays (10 mM) was characterized from variations in DHE fluoresc ence in-
tensity. The c once ntrati on of DHE was varied from 1 to 70 μM, with DHE bei ng ad ded to
the GCA solution by squirti ng a small v olume of a DHE solution i n DMSO (% DMSO < 1
%). The solutions obtai ned were optically clear and stable. However, the flu oresce nce in-
tensity measured in a right-angle geometry was not linearly dependent on the intensity
of light absorbed, Figure S6. This behaviour is in part due to geometr ical constraints due
to the right-angle detection, with a significant fluoresce nce being emitted but not detected.
present as small aggregates.
Figure S6. Dependence of DHE fluorescence intensity ex/em = 324/372 nm on the intensity of light
absorbed by DHE, when added to aqueous solutions containing 10 mM GCA. The hollow symbols
correspond to DHE concentrations equal to 1, 5 and 10 μM, and the filled symbols correspond to
DHE at 25, 50 and 70 μM. The line represents the best fit for the hollow symbols. […]

[6] = set-up: method as in PMID 4027244; conditions: aqueous media; cited from earlier work
[7] = set-up: method as in PMID 17766353; conditions: cited from earlier work
[8] = Absorptive (apical to basolateral) DHE permeability assay through Caco-2 monolayers; format: in vitro ADME, human; conditions: human, Caco-2, pH 7.4, GCA 10 mM, absence of coffee, 6 h, read-out: DHE apparent permeability coefficient (Papp)
Method: as §1, §2
(§3) It was therefore necessary to guarantee that the composition of the acceptor compartment in the permeability assay has an adequate ability to solubilize the sterol and allow its quantification. To approach the in vivo conditions in absorptive cholesterol transport, the acceptor compartment contained serum albumin at 100 µM, which corresponds to the concentration usually found in interstitial tissues. Serum albumin binds the cholesterol analog DHE with low to moderate affinity, KB = 5 × 10^4 [37], and at the concentration used DHE solubility is increased by at least an order of magnitude. To decrease the adsorption of DHE to the plate well and to the basolateral membrane, the transport media added to the basolateral side contained additionally 1% (v/v) DMSO. The presence of BSA and DMSO lead to improved sink conditions and higher DHE recoveries. The solutions from the acceptor compartments in the permeability assay where lyophilized directly in the wells of the permeability assay. A small amount of water was then added to facilitate detachment from the plate and solubilize salts and BSA. Ice-cold methanol was then added to dissolve DHE and precipitate the serum albumin. The DHE recovery efficiency when following this procedure was at least 90% (for details see Table S3 of the Supplementary Materials).
(§4) To start the absorptive transport experiments, the HBSS on the apical side was removed and replaced with 450 μL of the test solution (emulsified DHE + LY, emulsified DHE + coffee + LY or LY solutions). After addition of the test solution, 50 μL was collected (corresponding to a time delay of about 2 min) and the inserts were moved to a 12-well plate containing 1.2 mL of the basolateral transport medium. […]

Caco-2 monolayers [9] = test: as above; format: in vitro ADME, human
Method: as §1, §2, §3, §4

[10] = average over Table 2 samples (DHE 10, 50 and 100 µM)
[11] = multi-time point assay, LY 20 µM alone or with DHE 10 µM emulsified by GCA 10 mM, without or with coffee extract (16-fold diluted), n = 2

## CC(CCC(=O)NCC(=O)O)C1CCC2C3C(O)CC4CC(O)CCC4(C)C3CCC12C (stereo not drawn) [GCDCA, glycochenodeoxycholic acid]
[1]
  critical micelle concentration (CMC): 1.6 mM
[2]
  capacity to emulsify cholesterol: 1.3 mM

## Lucifer yellow CH di-potassium salt [LY]
Caco-2 monolayers [3]; [10]
  Papp of LY, average value: 0.13 ×10⁻⁶ cm/s
  amount of LY transported over the 6 h incubation, average value: 0.8%
Caco-2 monolayers [3]; multi-time point assay, last time interval of 2 h, LY alone or with DHE 10 µM/GCA 10 mM, without or with coffee extract, n = 2
  Papp of LY (×10^−6): 0.64 ×10^−6 cm/s
Caco-2 monolayers [3]; [11]
  % Transport of LY 0–2 h: 1.6%
  % Transport of LY 2–4 h: 0.9%
  % Transport of LY 4–6 h: 1.3%
Caco-2 monolayers [3]; single time point 6 h, LY only
  % Transport of LY 6 h: 1.6%
  Papp of LY (×10^−6): 0.27 ×10^−6 cm/s

## CC(CCC(=O)NCC(=O)O)C1CCC2C3CCC4CC(O)CCC4(C)C3CC(O)C12C (stereo not drawn) [GDCA, glycodeoxycholic acid]
[1]
  critical micelle concentration (CMC): 1.7 mM
[4]; GDCA in HBSS, all tested concentrations (1.56–50 mM)
  viability at 2 h: < 10%
[2]
  capacity to emulsify cholesterol: up to 3 mM

## CC(C)[C@@H](C)C=C[C@@H](C)[C@H]1CC[C@H]2C3=CC=C4C[C@@H](O)CC[C@]4(C)C3=CC[C@]12C [DHE, ergosta-5,7,9(11),22-tetraen-3β-ol]
[5]
  DHE emulsified by GCA: up to 10 µM
[6]
  estimated critical aggregation concentration: 25 nM
[7]; liquid disordered phase
  characteristic rate constant for desorption from membranes: 0.001 s⁻¹
[7]; liquid ordered phase
  characteristic rate constant for desorption from membranes: 6.9e-05 s⁻¹
[8]; 50 µM DHE
  Papp at 6 h, 50 µM: 0.0017 ×10⁻⁶ cm/s
[8]; 100 µM DHE
  Papp at 6 h, 100 µM: 0.026 ×10⁻⁶ cm/s
Caco-2 monolayers [9]; DHE 10 µM apical, transfer sampling at 2, 4 and 6 h, detection limit 1.6 pmol
  DHE in the acceptor (basolateral) compartment: not detected
Caco-2 monolayers [9]; DHE 10 µM, GCA 10 mM, about 2 min, control (no coffee) or with coffee brew diluted 16 times
  fraction of DHE that disappears from the apical transport media immediately after addition to the cell monolayers: 18.5 ± 3.9%
Caco-2 monolayers [9]; DHE 10 µM, GCA 10 mM, at 4 and 6 h incubation
  additional decrease of DHE in suspension in the apical compartment: about 2%
Caco-2 monolayers [9]; end of permeability assay (6 h), DHE 10 µM, GCA 10 mM, control or with coffee brew
  amount of DHE extracted from the cells: 16.3 ± 4.7%

## C[C@H](CCC(=O)NCC(=O)O)[C@H]1CC[C@H]2[C@@H]3[C@H](O)C[C@@H]4C[C@H](O)CC[C@]4(C)[C@H]3C[C@H](O)[C@]12C [GCA, glycocholic acid]
[1]
  critical micelle concentration (CMC): 6.5 mM
[4]; GCA 15 mM, 6 h exposure, relative to HBSS control
  viability at 6 h, 15 mM: 80%
[4]; GCA in HBSS at concentrations ≤12.5 mM
  viability at 2 h: > 90%
[2]
  capacity to emulsify cholesterol: 1.0 mM
